We go through three compounds from publication PMC5967867, “An NMDAR positive and negative allosteric modulator series share a binding site and are interconverted by methyl groups” (eLife, 2018).

The target of data set [1] is GluN1/GluN2C NMDARs (Rattus norvegicus, UniProt P35439+Q00961). As to the kind of experiment: Two-electrode voltage-clamp recordings, Xenopus laevis oocytes expressing GluN1/GluN2C. It counts as cell-based. The note with it: for Modulation by 10 µM (% of control): 10 µM modulator; for Emax: read-out: Maximal Degree of Modulation (% of control). The method, then:
(§1) cDNAs for rat wild type NMDAR subunits GluN1-1a (GenBank U11418, U08261; hereafter GluN1 or GluN1a), GluN1-1b (U08263, hereafter GluN1b), GluN2A (D13211), GluN2B (U11419), GluN2C (M91563), and GluN2D (L31611, modified as described in [Monyer et al., 1994]) were provided by Drs. S. Heinemann (Salk Institute), S. Nakanishi (Kyoto University), and P. Seeburg (University of Heidelberg). Site-directed mutagenesis was conducted using the QuikChange kit (Agilent Technologies, Santa Clara, CA) following the recommended protocol. DNA sequencing was used to verify all mutations. The amino acid numbering system started with the initiating methionine as residue number one. For expression in Xenopus laevis oocytes, cDNA constructs were linearized by restriction enzymes, and subsequently used to synthesize in vitro cRNAs following the manufacturer’s protocol (mMessage mMachine, Ambion, ThermoFisher Scientific, Waltham, MA).
Xenopus laevis stage VI oocytes (Ecocyte Biosciences, Austin, TX) were injected as previously described ([Hansen et al., 2013]) 2–7 days prior to recording with cRNA encoding the NMDAR subunits and stored at 15°C in media containing (in mM) 88 NaCl, 2.4 NaHCO3, 1 KCl, 0.33 Ca(NO3)2, 0.41 CaCl2, 0.82 MgSO4, 5 Tris-HCl; pH was adjusted to 7.4 with NaOH and the solution supplemented with 1 U/mL penicillin, 0.1 mg/mL gentamicin sulfate, and 1 μg/mL streptomycin. Two-electrode voltage-clamp recordings were performed at room temperature (21–23°C) using different internal solutions for voltage and current electrodes (0.3 M and 3.0 M KCl, respectively). All extracellular solutions were made from a solution containing (in mM) 90 NaCl, 1 KCl, 10 HEPES, 0.5 BaCl2, 0.01 EDTA (pH 7.4 with NaOH). Experiments were performed using an eight port Modular Valve Positioner (Hamilton Company, Reno, NV) and controlled by custom software (Easy Oocyte, Emory University, Atlanta, GA)to exchange solutions. Oocyte currents were recorded at a holding potential of −40 mV using a two-electrode voltage-clamp amplifier (OC-725B or OC-725C, Warner Instruments, Hamden, CT). […] In MTSEA experiments, fresh MTSEA solutions (0.2 mM) were prepared and utilized in less than 30 min to limit compound degradation.
Measurements are given as mean ± SEM unless otherwise indicated. The number of replicate experiments used was chosen to ensure a power level of at least 0.80 when α = 0.05 and when detecting appropriate effect sizes. EC50 and IC50 values and confidence intervals reported were calculated by averaging the log(EC50) or log(IC50) value, determining confidence intervals for mean log(EC50) or log(IC50), and converting back to units of molarity. Statistical significance evaluations (α set to 0.05) were performed using a one-way ANOVA with Dunnett’s multiple comparison test, a paired t–test, or other appropriate tests as described.
(In general: In two-electrode clamp one electrode senses voltage and the other passes current.)

For data set [2], the system named is diheteromeric NMDARs. Description: Two-electrode voltage-clamp recordings, statements across all diheteromeric NMDARs. It counts as cell-based, rat. The method, then:
as §1
Xenopus laevis stage VI oocytes (Ecocyte Biosciences, Austin, TX) were injected as previously described ([Hansen et al., 2013]) 2–7 days prior to recording with cRNA encoding the NMDAR subunits and stored at 15°C in media containing (in mM) 88 NaCl, 2.4 NaHCO3, 1 KCl, 0.33 Ca(NO3)2, 0.41 CaCl2, 0.82 MgSO4, 5 Tris-HCl; pH was adjusted to 7.4 with NaOH and the solution supplemented with 1 U/mL penicillin, 0.1 mg/mL gentamicin sulfate, and 1 μg/mL streptomycin. Two-electrode voltage-clamp recordings were performed at room temperature (21–23°C) using different internal solutions for voltage and current electrodes (0.3 M and 3.0 M KCl, respectively). All extracellular solutions were made from a solution containing (in mM) 90 NaCl, 1 KCl, 10 HEPES, 0.5 BaCl2, 0.01 EDTA (pH 7.4 with NaOH). Experiments were performed using an eight port Modular Valve Positioner (Hamilton Company, Reno, NV) and controlled by custom software (Easy Oocyte, Emory University, Atlanta, GA)to exchange solutions. Oocyte currents were recorded at a holding potential of −40 mV using a two-electrode voltage-clamp amplifier (OC-725B or OC-725C, Warner Instruments, Hamden, CT). […]

Data set [3] is described as follows: Racemization time course of enantiomers in working solution (functional assessment). It counts as physicochemical. The note with it: standard experimental (aqueous working) solution. An excerpt:
The enantiomers of EU1794-27 were separated to determine whether the racemic activity reflected the actions of only one enantiomer (see Supplemental methods). (-)-EU1794-27 potentiated NMDAR responses similarly to the racemic mixture (Figure 8—figure supplement 1A, Table 7). […] We previously reported ([Katzman et al., 2015]) that purified enantiomers were likely to racemize in aqueous solutions, which should proceed by a first-order reaction dependent on multiple factors such as ionic strength, pH, buffer, etc. ([Smith et al., 1978]). Thus, to quantitatively determine if racemization would impact our experiments using the enantiomers, we performed a functional assessment of this property in our standard experimental solution. […] Both enantiomers of EU1794-4 inhibited NMDAR responses, but with different potencies (Figure 8—figure supplement 1C, Supplementary File 2). […] All enantiomer studies, other than the racemization time-course, were performed rapidly to minimize any racemization, being completed in less than 80 min after making the aqueous solution of modulator.
Figure 8. The enantiomers of EU1794-4 and EU1794-27 have different action. […] (C) Single concentration competition experiments illustrating an interaction between both enantiomers of EU1794-4 (+and -) and the positive modulating enantiomer of EU1794-27 (-) at GluN1/GluN2D. […] Figure 8—figure supplement 1. […]

[4] abbreviates: glutamate/glycine 100/30 µM, no second modulator (+EU1794-27 0 µM), read-out: IC50 (µM) [conf. int.].
Setting [5] is: saturating glutamate/glycine 100/30 µM, mean [95% CI], read-out: EC50 (µM) [conf. int.].
The mark [6] stands for this setting: saturating glutamate/glycine 100/30 µM, mean ± SEM.
Setting [7] is: Glu/Gly 1/0.3 µM (sub-saturating).
Where [8] appears, read: sub-saturating glutamate/glycine 1/0.3 µM, read-out: EC50 (µM) [conf. int.].
Where [9] appears, read: sub-saturating glutamate/glycine 1/0.3 µM.

Where two headings read alike, the source gives them in different places. Marks after values point to notes of the source that are not given here.

GluN1/GluN2C NMDARs, sequence (Q00961 20-1237, other chains not shown): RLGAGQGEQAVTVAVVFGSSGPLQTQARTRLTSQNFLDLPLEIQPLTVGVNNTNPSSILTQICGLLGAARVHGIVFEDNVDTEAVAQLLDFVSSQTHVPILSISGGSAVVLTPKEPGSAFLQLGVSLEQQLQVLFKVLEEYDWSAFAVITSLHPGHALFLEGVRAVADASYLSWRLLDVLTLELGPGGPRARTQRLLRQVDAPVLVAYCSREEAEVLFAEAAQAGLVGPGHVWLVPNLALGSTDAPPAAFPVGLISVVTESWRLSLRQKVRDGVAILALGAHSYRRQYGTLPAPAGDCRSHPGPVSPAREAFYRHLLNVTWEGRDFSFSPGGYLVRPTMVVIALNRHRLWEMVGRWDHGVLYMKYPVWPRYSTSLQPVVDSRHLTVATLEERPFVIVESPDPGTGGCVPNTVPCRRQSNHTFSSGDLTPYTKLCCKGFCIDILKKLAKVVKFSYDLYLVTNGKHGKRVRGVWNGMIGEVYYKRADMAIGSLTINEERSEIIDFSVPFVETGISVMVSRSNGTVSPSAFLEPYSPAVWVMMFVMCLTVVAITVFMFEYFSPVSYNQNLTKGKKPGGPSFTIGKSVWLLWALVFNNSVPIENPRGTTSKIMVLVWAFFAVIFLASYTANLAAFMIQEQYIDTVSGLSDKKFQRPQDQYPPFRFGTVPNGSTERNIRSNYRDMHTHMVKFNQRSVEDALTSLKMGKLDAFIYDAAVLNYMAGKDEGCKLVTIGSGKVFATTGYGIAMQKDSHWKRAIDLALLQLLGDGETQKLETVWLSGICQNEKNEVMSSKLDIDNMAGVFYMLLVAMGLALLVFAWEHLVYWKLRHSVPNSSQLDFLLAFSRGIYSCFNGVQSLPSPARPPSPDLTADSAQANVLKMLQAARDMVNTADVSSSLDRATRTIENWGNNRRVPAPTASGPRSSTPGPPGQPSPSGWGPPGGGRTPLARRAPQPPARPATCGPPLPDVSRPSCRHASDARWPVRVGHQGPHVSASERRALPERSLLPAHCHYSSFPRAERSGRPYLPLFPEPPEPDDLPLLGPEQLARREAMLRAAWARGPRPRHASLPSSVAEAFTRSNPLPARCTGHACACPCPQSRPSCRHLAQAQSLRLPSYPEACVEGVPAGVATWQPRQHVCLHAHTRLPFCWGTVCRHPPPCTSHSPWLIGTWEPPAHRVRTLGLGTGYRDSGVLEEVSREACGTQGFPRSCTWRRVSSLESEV

As to `CCOC(=O)c1c(NC(=O)CC2SC(=N)NC2=O)sc2c1CCC(C)C2` (stereo not drawn) [EU1794-2, ethyl 2-(2-(2-imino-4-oxothiazolidin-5-yl)acetamido)-6-methyl-4,5,6,7-tetrahydrobenzo[b]thiophene-3-carboxylate], the “Modulation by 10 µM (% of control)” value in data set [1] (Glu/Gly 0.6/0.2 µM (sub-saturating)) is given as 43 ± 2.1 % of control; in data set [1] (Glu/Gly 100/30 µM), 16 ± 1.0 % of control. The IC50 (usually the concentration that gives 50% inhibition) in data set [1] (+EU1794-27 3 µM, glutamate/glycine 100/30 µM, read-out: EU1794-2 IC50 (µM) [conf. int.]) is 1.2 µM; in data set [1] (+EU1794-27 10 µM, glutamate/glycine 100/30 µM, read-out: EU1794-2 IC50 (µM) [conf. int.]), 2.4 µM; in data set [1] (+EU1794-27 20 µM, glutamate/glycine 100/30 µM, read-out: EU1794-2 IC50 (µM) [conf. int.]), 6 µM; in data set [1] (setting [4]), 0.21 µM. Besides, the EC50 (commonly the concentration giving half of the maximal effect) was determined as 0.26 µM in data set [1] (setting [5]) and 0.72 µM in data set [1] (sub-saturating glutamate/glycine 0.6/0.2 µM, read-out: EC50 (µM) [conf. int.]). For the same compound, the figures for the Emax in data set [1] (setting [6]) and in data set [1] (sub-saturating glutamate/glycine 0.6/0.2 µM) were 14% and 41%, respectively.

In the case of `CCOC(=O)c1c(NC(=O)CC2SC(=N)NC2=O)sc2c1CCCC2` (stereo not drawn) [EU1794-4, ethyl 2-(2-(2-imino-4-oxothiazolidin-5-yl)acetamido)-4,5,6,7-tetrahydrobenzo[b]thiophene-3-carboxylate], the melting point – broadly, the temperature of the solid-liquid transition – is 163 °C (dec.). Also, in data set [1] (Glu/Gly 0.3/0.09 µM (sub-saturating)), the “Modulation by 10 µM (% of control)” value is 660 ± 110 % of control. In addition, in data set [1] (setting [7]), the “Modulation by 10 µM (% of control)” value is given as 140 ± 12 % of control. For the same compound, the “Modulation by 10 µM (% of control)” value in data set [1] (Glu/Gly 100/30 µM) was 54 ± 1.6 % of control. In data set [1] (control vs 10 µM EU1794-4), the “Fold Difference (glutamate EC50)” value is reported as 3.2^† and the “Fold Difference (glycine EC50)” value is on record as 4.6^†. Moreover, the 50% inhibitory concentration (IC50) in data set [1] (setting [4]) stood at 0.42 µM. For the same compound, the EC50 in data set [1] (setting [5]) was determined as 0.42 µM. The Emax in data set [1] (setting [6]) is 52%. The EC50 in data set [1] (setting [8]) was determined as 15 µM. In addition, the Emax in data set [1] (setting [9]) came to 220%. The “potency of (-) enantiomer relative to (+) enantiomer” value in data set [2] (inhibition, across subtypes) is listed as 3–10 fold. For the same compound, the “residual current at saturating levels” value in data set [2] (saturating EU1794-4) is listed as 30–60%. Further, the saturated inhibition in data set [2] (saturating modulator and agonist, across NMDAR subtypes) is on record as 40–70 % of control. Besides, the half-life (in general, how long it takes for the measured level to halve) at 10 µM in data set [3] worked out at 3.27 h.

Turning to `CC(C)(C)OC(=O)c1c(NC(=O)CC2SC(=N)NC2=O)sc2c1CCCC2` (stereo not drawn) [EU1794-27, tert-butyl 2-(2-(2-imino-4-oxothiazolidin-5-yl)acetamido)-4,5,6,7-tetrahydrobenzo[b]thiophene-3-carboxylate], the “Modulation by 10 µM (% of control)” value is 480 ± 31 % of control in data set [1] (setting [7]) and 190 ± 10 % of control in data set [1] (Glu/Gly 100/30 µM). Moreover, the EC50 was determined as 7.3 µM in data set [1] (+EU1794-2 1 µM, glutamate/glycine 100/30 µM, read-out: EU1794-27 EC50 (µM) [conf. int.]); 7.3 µM in data set [1] (+EU1794-2 3 µM, glutamate/glycine 100/30 µM, read-out: EU1794-27 EC50 (µM) [conf. int.]); 2.8 µM in data set [1] (setting [5]); 5 µM in data set [1] (setting [8]). Besides, the “Fold Difference (glutamate EC50)” value in data set [1] (control vs 10 µM EU1794-27) was 3.3^†. Further, the “Fold Difference (glycine EC50)” value in data set [1] (control vs 10 µM EU1794-27) stood at 2.4. Further, the figures for the Emax in data set [1] (setting [6]) and in data set [1] (setting [9]) were 230% and 680%, respectively. The half-life at 10 µM in data set [3] turned out to be 3.28 h.
